Experimental data: the NIST ThermoML archive (doi:10.1016/j.jct.2008.07.005)
± gives the expanded uncertainty stated by the source.

Tests used:
[1] = xn = mol fraction of the nth substance listed; conditions: 283.15 K; 98.93 kPa; Liquid; x2 = 0

Molecule CC(O)CO (centres undefined) [1,2-propanediol] has a mass density (283.15 K, 101.33 kPa, Liquid) of 1043.32 ± 1.5 kg/m3, a mass density (288.15 K, 101.33 kPa, Liquid) of 1040.45 ± 1.5 kg/m3 and a mass density (293.15 K, 101.33 kPa, Liquid) of 1036.15 ± 1.4 kg/m3. The mass density (298.15 K, 101.33 kPa, Liquid) was 1032.71 ± 1.5 kg/m3, the mass density (303.15 K, 101.33 kPa, Liquid) was 1029.62 ± 1.5 kg/m3 and the mass density (308.15 K, 101.33 kPa, Liquid) was 1025.13 ± 1.6 kg/m3.
OCC(O)CO [glycerol] gave a mass density (283.15 K, 101.33 kPa, Metastable liquid) of 1266.31 ± 2.2 kg/m3, a mass density (288.15 K, 101.33 kPa, Metastable liquid) of 1264.39 ± 2.1 kg/m3 and a mass density (293.15 K, 101.33 kPa, Metastable liquid) of 1262.53 ± 2.1 kg/m3. It also gave a mass density (298.15 K, 101.33 kPa, Metastable liquid) of 1258.73 ± 2.1 kg/m3, a mass density (303.15 K, 101.33 kPa, Metastable liquid) of 1254.9 ± 2.2 kg/m3 and a mass density (308.15 K, 101.33 kPa, Metastable liquid) of 1252.65 ± 2.2 kg/m3.
OCCCO [propan-1,3-diol] showed a mass density (283.15 K, 101.33 kPa, Liquid) of 1056.92 ± 1.7 kg/m3, a mass density (288.15 K, 101.33 kPa, Liquid) of 1055.67 ± 1.6 kg/m3 and a mass density (293.15 K, 101.33 kPa, Liquid) of 1053.64 ± 1.6 kg/m3. For the same molecule, the mass density (298.15 K, 101.33 kPa, Liquid) was 1050.37 ± 1.7 kg/m3, the mass density (303.15 K, 101.33 kPa, Liquid) was 1047.58 ± 1.7 kg/m3 and the mass density (308.15 K, 101.33 kPa, Liquid) was 1044.25 ± 1.8 kg/m3.
With CCCO [propan-1-ol] the mass density (283.15 K, 101.33 kPa, Liquid) was 811.34 ± 1.2 kg/m3, the mass density (288.15 K, 101.33 kPa, Liquid) was 807.51 ± 1.1 kg/m3 and the mass density (293.15 K, 101.33 kPa, Liquid) was 803.65 ± 1.1 kg/m3. It also gave a mass density (298.15 K, 101.33 kPa, Liquid) of 799.67 ± 1.1 kg/m3, a mass density (303.15 K, 101.33 kPa, Liquid) of 795.95 ± 1.2 kg/m3 and a mass density (308.15 K, 101.33 kPa, Liquid) of 791.57 ± 1.2 kg/m3.
Work on O [water] yielded a mass density (283.15 K, 98.93 kPa, Liquid) of 999.7 ± 1.3 kg/m3.
In the case of O [water] + CC(O)CO, the mass density [1] is reported as 999.7 ± 1.3 kg/m3.
O [water] + CCCO gave a mass density [1] of 999.69 ± 1.3 kg/m3.
O [water] + OCC(O)CO gave a mass density [1] of 999.7 ± 1.3 kg/m3.
O [water] + OCCCO showed a mass density [1] of 999.7 ± 1.3 kg/m3.
